Where two headings read alike, the source gives them in different places. Each block holds one compound with its values, some of them ahead of it.
How the values were obtained:
[1] = molecular target: T1, intracerebral amyloid (aggregated Aβ1-42 injected into amygdaloid nucleus) (Homo sapiens, UniProt P05067); assay: ex vivo autoradiogram using rats of amyloid injected model (Examples II-13, II-14); design: species or system male Wistar rat; conditions: rat with Aβ1-42 amyloid suspension in one amygdaloid nucleus, tail vein, brain removed 60 minutes after injection
T1 construct: Aβ1-42 (manufactured by Peptide Institute) was dissolved in phosphate buffer (pH 7.4); purchased Peptide Institute
T1 sequence (P05067 672-713): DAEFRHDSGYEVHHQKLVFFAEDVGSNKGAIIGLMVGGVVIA
Procedure: As a control, 2.5 μL of a phosphate buffered physiological saline solution (pH 7.4) was injected into an amygdaloid nucleus on the other side of the rat. The rats were examined 1 day after the injection of the amyloid suspension and the phosphate buffered physiological saline solution (pH 7.4).
(4) Brain was removed 60 minutes after the injection to prepare a brain slice of 10 μm in thickness with a microtome (type: CM3050S, manufactured by LEICA).

[2] = Partition coefficient based on the octanol extraction method (logPoctanol); conditions: octanol / 10 mmol/L phosphate buffer (pH 7.4), radioactivity count
Procedure: 10 μL each of the prepared sample solution was respectively added to 2 mL of octanol, further, 2 mL of 10 mmol/L phosphate buffer (pH 7.4) was added, and stirred for 30 seconds. […] Using the obtained radioactivity count, log Poctanol was calculated in accordance with the equation (2).

[3] = Transferability into brain and clearance (Examples II-11, II-12, Comparative Example II-1); conditions: rats, intravenous injection, three animals
Procedure: Using the Compounds 10 and 11, a time course change of radioactive accumulation in brain of male Wistar rats (7-week old) was measured.
The rats were sacrificed by bleeding from abdominal artery, and brains were removed and subjected to measurement of mass of brains and further subjected to measurement of radioactivity (hereinafter referred to as A in this Example) with a single channel analyzer (detector type: SP-20 manufactured by OHYO KOKEN KOGYO Co., Ltd.) 2, 5, 30 and 60 minutes after the injection. Also, radioactivity (hereinafter referred to as B in this Example) of the rest of the whole body was measured in the same manner as above. Using these measurement results, radioactive accumulation per unit weight of brain (% ID/g) at the respective time points were calculated in accordance with the following formula (4).
Three animals were used for experiment at the respective time points.

[4] = International Publication No. WO03/106439; cited from earlier work
[5] = [125I]-labeled compounds, normal mice; cited from earlier work
[6] = [11C]-labeled, rats; cited from earlier work

SMILES: Oc1ccc(-c2cn3cc([123I])ncc3n2)cc1 [Compound 10, [^123I]-2-(4′-hydroxyphenyl)-6-iodoimidazo[1,2-a]pyrazine]
Accumulation of radioactivity at intracerebral amyloid (ex vivo autoradiogram) [1]: a marked accumulation of radioactivity was observed in the amygdaloid nucleus on the side to which the amyloid suspension was injected
logPoctanol value [2]: 2.3
Radioactive accumulation in brain per unit weight ([3]; after 2 min.): 0.62 % ID/g
Radioactive accumulation in brain per unit weight ([3]; after 5 min.): 0.33 % ID/g
Radioactive accumulation in brain per unit weight ([3]; after 30 min.): 0.08 % ID/g
Radioactive accumulation in brain per unit weight ([3]; after 60 min.): 0.02 % ID/g

logPoctanol value [2]: 3.0
Radioactive accumulation in brain per unit weight ([3]; after 2 min.): 0.65 % ID/g
Radioactive accumulation in brain per unit weight ([3]; after 5 min.): 0.43 % ID/g
Radioactive accumulation in brain per unit weight ([3]; after 30 min.): 0.09 % ID/g
Radioactive accumulation in brain per unit weight ([3]; after 60 min.): 0.03 % ID/g
SMILES: Oc1ccc(-c2cn3cccc([123I])c3n2)cc1 [Compound 11, [^123I]-2-(4′-hydroxyphenyl)-8-iodoimidazo[1,2-a]pyridine]
Accumulation of radioactivity at intracerebral amyloid (ex vivo autoradiogram) [1]: a marked accumulation of radioactivity was observed in the amygdaloid nucleus on the side to which the amyloid suspension was injected

SMILES: CC(=C(C#N)C#N)c1ccc2cc(N(C)CCF)ccc2c1 [FDDNP, 2-(1-{6-[(2-fluoroethyl)(methyl)amino]-2-naphthyl}ethylidene)malononitrile]
Result in reverse mutation test [4]: positive

SMILES: CN(C)c1ccc(-c2nc3ccc(I)cc3o2)cc1 [IBOX, 6-iodo-2-[4′-(N,N-dimethylamino)phenyl]benzoxazole]
Clearance from normal tissues [5]: insufficient in clearance from normal tissues

SMILES: CN(C)c1ccc(-c2cn3cc(I)ccc3n2)cc1 [IMPY, 6-iodo-2-[4′-(N,N-dimethylamino)phenyl]imidazo[1,2-a]pyridine]
Result in reverse mutation test [4]: positive

SMILES: CNc1ccc(/C=C/c2ccc(O)cc2)cc1 [SB-13, (E)-4-methylamino-4′-hydroxystilbene]
Clearance from normal tissues [6]: it cannot be said that the clearance is sufficiently fast

SMILES: CN(C)c1ccc(-c2nc3ccc(I)cc3s2)cc1 [TZDM, 6-iodo-2-[4′-(N,N-dimethylamino)phenyl]benzothiazole]
Clearance from normal tissues [5]: insufficient in clearance from normal tissues

SMILES: CN(C)c1ccc(/C=C/c2ccc(I)cc2)cc1 [m-I-SB, (E)-4-dimethylamino-4′-iodostilbene]
Clearance from normal tissues [5]: insufficient in clearance from normal tissues

Reference: patent US20100249408A1, “USE OF NOVEL COMPOUND HAVING AFFINITY FOR AMYLOID, AND PROCESS FOR PRODUCTION OF THE SAME” (NIHON MEDI-PHYSICS CO., LTD., priority 2007, published 2010)
